Measured values reported in ChEMBL document CHEMBL1151783 (Bioorg Med Chem Lett, 2008).
Values after ≈ are worked out from the molar mass of the structure shown. Active and inactive are the calls of the source. The rule behind the calls is not given here.

What was measured:
[1] = species on record: Bos taurus; test: Inhibition of bovine tubulin polymerization at 10 uM
[2] = species on record: Bos taurus; test: Inhibition of bovine tubulin polymerization at 5 uM
[3] = Membrane permeability by PAMPA; format: ADME; conditions: for Papp: read-out: permeability
[4] = Solubility in phosphate buffer saline after 2 hrs; format: physicochemical; conditions: phosphate buffered saline
[5] = Binding affinity to bovine tubulin after 2 hrs by fluorescence polarization assay; set-up: species or system Bos taurus
[6] = species on record: Bos taurus; test: Binding affinity to bovine tubulin at 10 uM after 2 hrs by fluorescence polarization assay
[7] = Displacement of [3H]colchicine from bovine tubulin after 2 hrs by fluorescence polarization assay; set-up: species or system Bos taurus
[8] = test system: HeLa; test: Cytotoxicity against human HeLa cells after 48 hrs by luminescence cell viability assay; format: functional, cell-based
[9] = test system: HepG2; test: Cytotoxicity against human HepG2 cells after 48 hrs by luminescence cell viability assay; format: functional, cell-based; conditions: HepG2, 48 h
[10] = test system: Raji; test: Cytotoxicity against human Raji cells after 48 hrs by luminescence cell viability assay; format: functional, cell-based
[11] = test system: Vero; test: Cytotoxicity against african green monkey Vero cells after 48 hrs by luminescence cell viability assay; format: cell-based; conditions: Chlorocebus sabaeus
[12] = test system: Vero; test: Induction of apoptosis in african green monkey Vero cells assessed as caspase 3/7 activity after 18 hrs […]; format: functional, cell-based; conditions: Chlorocebus sabaeus
[13] = test system: Vero; test: Cell cycle arrest in african green monkey Vero cells assessed as accumulation at G2/M phase after 18 hrs by flow cytometry using propidium iodide staining; format: functional, cell-based; conditions: Chlorocebus sabaeus

SMILES | Activity [1] | Activity [2] | permeability [3] [×10⁻⁶ cm/s] | solubility at 2 h [4] [µM] | Kd [5] [µM] | Activity [6] | IC50 [7] [µM] | EC50 [8] [µM] | EC50 [9] [µM] | EC50 [10] [µM] | EC50 [11] [µM] | Papp [3] [×10⁻⁶ cm/s] | EC50 [12] [µM] | EC50 [13] [µM]
CC(=O)O[C@H]1C(=O)[C@@]2(C)[C@H]([C@H](OC(=O)c3ccccc3)[C@]3(O)C[C@H](OC(=O)[C@H](O)[C@@H](NC(=O)c4ccccc4)c4ccccc4)C(C)=C1C3(C)C)[C@]1(OC(C)=O)CO[C@@H]1C[C@@H]2O | inactive | – | – | – | – | – | – | – | – | – | – | – | – | –
COc1cc2c(c(OC)c1OC)-c1ccc(OC)c(=O)cc1[C@@H](NC(C)=O)CC2 [COLCHICINE] | – | Active | 415 | > 250 | – | – | – | – | – | – | – | – | – | –
COc1cc2c(c(OC)c1OC)-c1ccc(OC)c(=O)cc1[C@@H](NC(=O)CCC1=[N+]3C(=Cc4cccn4[B-]3(F)F)C=C1)CC2 | – | Active | – | 32 (≈ 19.3 µg/mL) | 5.8 | Active | 3.9 | 0.36 | 0.18 | 0.138 | 2.3 | 108 | 2.6 | 0.96
COc1cc2c(c(OC)c1OC)-c1ccc(OC)c(=O)cc1[C@@H](NC(=O)CCCCCNC(=O)COc1ccc(/C=C/C3=[N+]4C(=Cc5ccc(-c6ccc[nH]6)n5[B-]4(F)F)C=C3)cc1)CC2 | – | Active | – | < 10 | 7.6 | – | 6.4 | 1.9 | 1.2 | 0.65 | > 10 | < 10 | 10.5 | 6.8
